According to article PMC12607897, “Inhibition of HIV-1 replication by primer RNA packaging inhibitors” (mBio, 2025):

What was measured:
[1] = test system: HIV-1 NLENG1-IRES-GFP (NL4-3-GFP) virus in MT4 cells; assay: ex vivo HIV-1 replication assay, GFP expression by flow cytometry in infected MT4 cells (multiple cycles); type: cell-based; details: drug 10 µM, added 36–48 h after infection, read 72 h later
Procedure: To test this hypothesis, azelastine, lacidipine, and cilnidipine were used in an ex vivo assay to determine their effect on HIV-1 proliferation. MT4 cells were infected with NLENG1-IRES-GFP, a virus that allows for multiple cycles of infection, and the molecules were added to the medium 36–48 h after infection, before the completion of the first round of viral infection; 72 h after the drugs were added, when two rounds of HIV-1 infection were underway, the level of GFP fluorescence was determined by flow cytometry, as a marker of HIV-1 infection (Fig. 3, left panel). HIV-1 replication was inhibited in a dose-dependent manner. […]. […] At the same time, no drug toxicity was observed, as determined by the MTT assay (Fig. 3, right panel). […] The selectivity index (SI) ([24]) of the three drugs, defined as the ratio of 50% cytotoxic concentration (CC50; >20 µM) to 50% inhibitory concentration (IC50; ~5 µM), >4.
Fig 3 Effect of the inhibitors on HIV-1 replication and cell toxicity. MT4 cells were infected with NL4-3-GFP virus. Two days after infection, inhibitors were added to the culture medium at final concentrations of 1, 3.3, or 10 µM. The final concentration of DMSO was 0.1%. Five days after infection, GFP expression was quantified by flow cytometry, and cell viability was determined by the MTT assay. NInf corresponds to non-infected cells. Six independent experiments were performed, and standard deviations are shown. A Student t-test was used to determine statistical significance compared with the control experiment with DMSO (*: P < 0.001; **: P < 0.0001).
MT4 cell line ([26]) was maintained in RPMI 1640. HEK293T and HeLa-P4 cells ([27]) were maintained in Dulbecco’s modified Eagle medium (DMEM). All media were supplemented with Glutamax and with 10% heat-inactivated fetal calf serum (Hyclone) and 1% penicillin/streptomycin (100 units/mL) (Gibco). All media were purchased from Gibco (Life Technologies Co.). All cell lines used here were incubated at 37 °C, under 5% CO2 atmosphere. HIV-1 stocks were prepared by calcium phosphate-mediated transfection of HEK293T cells, as previously described ([22]), with shuttle vector plasmids encoding HIV-1 NL4-3 (GenBank: AF324493.1) or NLENG1-IRES-GFP ([28]). The latter vector comes from the HIV NL4-3 strain and contains a gfp-IRES-nef cassette at the nef locus. […].
For NL4-3-GFP vectors, viral infection is followed by GFP expression (i.e., the percentage and geometric mean fluorescence intensity [MFI] of GFP^+ cells). Infectivity was estimated by flow cytometry using a FACS Celesta flow cytometer (BD Biosciences). Toxicity is also assessed by flow cytometry (side and forward scatter).

[2] = test system: HIV-1 NL4-3 virus particles; assay: digital PCR / RT-dPCR of minus-strand strong stop cDNA and viral RNA in particles; type: cell-based; details: 10 µM drug, 72 and 96 h after infection
Text: We used digital RT-PCR and digital PCR to determine the viral mRNA and minus-strand strong stop viral cDNA content of the particles (Fig. 7; Fig. S6). The amount of early viral cDNA produced in the HIV-1 particles is a measure of the efficiency of the initiation step of reverse transcription, which requires the packaging of tRNA3^Lys at the budding step, the primer for cDNA synthesis.
Fig 7 Effect of drugs on viral synthesis of minus-strand strong stop cDNA. Viruses were harvested from the culture medium after 72 (red) or 96 h (blue) of infection of MT4 cells with NL4-3 viruses. Minus-strand strong stop viral DNA and viral RNA (vRNA) were quantified by digital PCR and RT-dPCR, respectively. Viruses were harvested from cultures grown in the presence of 10 µM of azelastine (Aze), lacidipine (Lac), or cilnidipine (Cil), or H2O or DMSO as controls. Values and the associated standard deviations (n = 3) are expressed as the ratios of the values obtained for the H2O or DMSO controls. […].
MT4 cells (2 × 10^6 cells) were infected with the NL4-3 viruses. After 4–5 h of infection at 37°C, cells were twice washed with PBS, incubated 5 min at 37°C in 0.25% trypsin-EDTA solution (Gibco) to eliminate viruses remaining in the medium, incubated 5 min at 37°C in complete RPMI medium, twice washed with PBS, resuspended in RPMI medium at a cell density of 200 × 10^3 cells/mL and incubated with 10 µM of azelastine (25 mM stock solution in H20), or lacidipine and cilnidipine (25 mM stock solution in DMSO). A second aliquot of the inhibitors was added to the culture medium 48 h after infection. […] All RNA and DNA quantifications were performed by digital PCR and RT-qPCR on a QIAcuity instrument (QIAGEN) using 26K 24-well nanoplates and the QIAcuity Probe PCR and One-Step Viral RT-PCR kits. Primers and probes were 5′-[…], 5′-[…], and 5′-[…] for the quantification of minus-strand strong-stop cDNA, and 5′-[…], 5′-[…], and 5′-[…] CGT for viral RNA quantification.

mLysRS = mLysRS (Homo sapiens, UniProt Q15046); assay: tRNA aminoacylation assay; type: biochemical; details: drug added up to 1 mM
Procedure: Initial rates of tRNA aminoacylation were measured at 25°C in 0.1 mL of 20 mM Imidazole-HCl buffer (pH 7.5), 100 mM KCl, 0.5 mM DTT, 12 mM MgCl2, 2 mM ATP, 180 µM ^14C-labeled lysine (NEN; 16.66 Ci/mol), and saturating amounts of global yeast tRNA ([30]). The incubation mixture contained catalytic amounts (2 nM) of mLysRS appropriately diluted in 10 mM Tris-HCl (pH 7.5), 10 mM 2-mercaptoethanol, containing bovine serum albumin at 4 mg/mL. Inhibitors were added at final concentrations ranging from 3.9 to 1,000 µM. One unit of activity is the amount of enzyme producing 1 nmol of lysine-tRNA^Lys/min, at 25°C.
Fig. S5. Effect of inhibitors on mLysRS activity. The tRNA-aminoacylation activity of mLysRS
was determined in the presence of increasing concentrations of the drugs. Two independent
experiments were performed and standard deviations are shown.
Fig. 6. Raw data of quantification of minus-strand strong stop viral DNA and viral RNA by
digital PCR from viruses recovered after 72 h incubation in the presence of 10 µM of the drugs.

Sequence of mLysRS (Q15046 31-625 isoform Q15046-2): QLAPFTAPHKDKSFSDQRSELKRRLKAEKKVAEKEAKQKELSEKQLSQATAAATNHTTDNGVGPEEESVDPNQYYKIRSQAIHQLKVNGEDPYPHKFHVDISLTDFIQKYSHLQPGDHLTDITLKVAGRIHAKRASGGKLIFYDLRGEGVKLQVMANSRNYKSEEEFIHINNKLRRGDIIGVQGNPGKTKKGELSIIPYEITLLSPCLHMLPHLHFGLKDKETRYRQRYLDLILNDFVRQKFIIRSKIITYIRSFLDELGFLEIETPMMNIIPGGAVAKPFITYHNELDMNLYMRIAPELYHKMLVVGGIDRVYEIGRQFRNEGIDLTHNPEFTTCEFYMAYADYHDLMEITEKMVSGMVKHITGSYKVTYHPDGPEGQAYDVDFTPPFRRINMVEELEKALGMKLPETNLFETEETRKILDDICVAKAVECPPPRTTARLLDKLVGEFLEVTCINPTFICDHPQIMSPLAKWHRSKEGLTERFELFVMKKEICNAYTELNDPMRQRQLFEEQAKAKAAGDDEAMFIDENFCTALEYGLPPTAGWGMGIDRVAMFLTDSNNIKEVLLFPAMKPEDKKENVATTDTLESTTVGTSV

CN1CCCC(n2nc(Cc3ccc(Cl)cc3)c3ccccc3c2=O)CC1 (stereo not drawn) [azelastine]
GFP fluorescence, % of the value observed when DMSO was added alone [1]: 15.2% | minus-strand strong stop cDNA in viruses, normalized to viral RNA [2]: significantly reduced | inhibition of Lysyl-tRNA^Lys synthesis (mLysRS): did not inhibit
